Assays:
[1] = human gut metagenome, 24 h, 2 µM
[2] = human gut metagenome, 24 h, 2 µM; remark: listed apart in the source
[3] = human gut metagenome, 24 h, 2 µM; remark: listed apart in the source
[4] = (§1) The drug is tested on WLS-027 corresponding to human gut metagenome with ENA study accession number: PRJEB37062 and ENA sample accession number: ERS12561744 for biotransformation under anaerobic condition. The drug concentrations were measured over 9 timepoints collected between 0 and 24 hours of incubation by liquid-chromatography-coupled mass spectrometry (LC–MS); details: 2 µM
[5] = human gut metagenome, 24 h, 2 µM; remark: listed apart in the source
[6] = human gut metagenome, 24 h, 2 µM; remark: listed apart in the source
[7] = as §1, with “WLS-370” for “WLS-027”, “ERS12561793” for “ERS12561744”; details: 2 µM
[8] = as §1, with “WLS-038” for “WLS-027”, “ERS12561745” for “ERS12561744”; details: 2 µM
[9] = human gut metagenome, 24 h, 2 µM; remark: listed apart in the source
[10] = as §1, with “WLS-010” for “WLS-027”, “ERS12561743” for “ERS12561744”; details: 2 µM
[11] = human gut metagenome, 24 h, 2 µM; remark: listed apart in the source
[12] = as §1, with “WLS-069” for “WLS-027”, “ERS12561748” for “ERS12561744”; details: 2 µM
[13] = as §1, with “WLS-073” for “WLS-027”, “ERS12561749” for “ERS12561744”; details: 2 µM
[14] = as §1, with “WLS-310” for “WLS-027”, “ERS12561785” for “ERS12561744”; details: 2 µM
[15] = as §1, with “WLS-039” for “WLS-027”, “ERS12561746” for “ERS12561744”; details: 2 µM
[16] = human gut metagenome, 24 h, 2 µM; remark: listed apart in the source
[17] = as §1, with “WLS-006” for “WLS-027”, “ERS12561741” for “ERS12561744”; details: 2 µM
[18] = as §1, with “WLS-098” for “WLS-027”, “ERS12561754” for “ERS12561744”; details: 2 µM
[19] = human gut metagenome, 24 h, 2 µM; remark: listed apart in the source
[20] = human gut metagenome, 24 h, 2 µM; remark: listed apart in the source
[21] = human gut metagenome, 24 h, 2 µM; remark: listed apart in the source
[22] = human gut metagenome, 24 h, 2 µM; remark: listed apart in the source
[23] = human gut metagenome, 24 h, 2 µM; remark: listed apart in the source
[24] = human gut metagenome, 24 h, 2 µM; remark: listed apart in the source
[25] = as §1, with “WLS-220” for “WLS-027”, “ERS12561769” for “ERS12561744”; details: 2 µM
[26] = as §1, with “WLS-007” for “WLS-027”, “ERS12561742” for “ERS12561744”; details: 2 µM
[27] = as §1, with “WLS-082” for “WLS-027”, “ERS12561751” for “ERS12561744”; details: 2 µM
[28] = human gut metagenome, 24 h, 2 µM; remark: listed apart in the source
[29] = as §1, with “WLS-090” for “WLS-027”, “ERS12561753” for “ERS12561744”; details: 2 µM
[30] = human gut metagenome, 24 h, 2 µM; remark: listed apart in the source
[31] = human gut metagenome, 24 h, 2 µM; remark: listed apart in the source
[32] = human gut metagenome, 24 h, 2 µM; remark: listed apart in the source
[33] = human gut metagenome, 24 h, 2 µM; remark: listed apart in the source
[34] = human gut metagenome, 24 h, 2 µM; remark: listed apart in the source
[35] = as §1, with “WLS-350” for “WLS-027”, “ERS12561789” for “ERS12561744”; details: 2 µM
[36] = as §1, with “WLS-170” for “WLS-027”, “ERS12561762” for “ERS12561744”; details: 2 µM
[37] = human gut metagenome, 24 h, 2 µM; remark: listed apart in the source
[38] = human gut metagenome, 24 h, 2 µM; remark: listed apart in the source
[39] = as §1, with “WLS-086” for “WLS-027”, “ERS12561752” for “ERS12561744”; details: 2 µM
[40] = human gut metagenome, 24 h, 2 µM; remark: listed apart in the source
[41] = human gut metagenome, 24 h, 2 µM; remark: listed apart in the source
[42] = human gut metagenome, 24 h, 2 µM; remark: listed apart in the source
[43] = human gut metagenome, 24 h, 2 µM; remark: listed apart in the source
[44] = human gut metagenome, 24 h, 2 µM; remark: listed apart in the source
[45] = human gut metagenome, 24 h, 2 µM; remark: listed apart in the source
[46] = human gut metagenome, 24 h, 2 µM; remark: listed apart in the source
[47] = human gut metagenome, 24 h, 2 µM; remark: listed apart in the source
[48] = human gut metagenome, 24 h, 2 µM; remark: listed apart in the source
[49] = as §1, with “WLS-052” for “WLS-027”, “ERS12561747” for “ERS12561744”; details: 2 µM
[50] = human gut metagenome, 24 h, 2 µM; remark: listed apart in the source
[51] = human gut metagenome, 24 h, 2 µM; remark: listed apart in the source
[52] = human gut metagenome, 24 h, 2 µM; remark: listed apart in the source
[53] = human gut metagenome, 24 h, 2 µM; remark: listed apart in the source
[54] = as §1, with “WLS-077” for “WLS-027”, “ERS12561750” for “ERS12561744”; details: 2 µM
[55] = human gut metagenome, 24 h, 2 µM; remark: listed apart in the source
[56] = human gut metagenome, 24 h, 2 µM; remark: listed apart in the source
[57] = as §1, with “WLS-240” for “WLS-027”, “ERS12561773” for “ERS12561744”; details: 2 µM
[58] = human gut metagenome, 24 h, 2 µM; remark: listed apart in the source
[59] = human gut metagenome, 24 h, 2 µM; remark: listed apart in the source
[60] = human gut metagenome, 24 h, 2 µM; remark: listed apart in the source
Further: call rule not given here.

- Bacterial Biotransformation [1]: Compound NOT metabolized
- Bacterial Biotransformation [2]: Compound NOT metabolized
- Bacterial Biotransformation [3]: Compound NOT metabolized
- Bacterial Biotransformation [4]: Compound NOT metabolized
- Bacterial Biotransformation [5]: Compound metabolized
- Bacterial Biotransformation [6]: Compound NOT metabolized
- Bacterial Biotransformation [7]: Compound metabolized
- Bacterial Biotransformation [8]: Compound NOT metabolized
- Bacterial Biotransformation [9]: Compound metabolized
- Bacterial Biotransformation [10]: Compound NOT metabolized
- Bacterial Biotransformation [11]: Compound metabolized
- Bacterial Biotransformation [12]: Compound NOT metabolized
- Bacterial Biotransformation [13]: Compound NOT metabolized
- Bacterial Biotransformation [14]: Compound metabolized
- Bacterial Biotransformation [15]: Compound NOT metabolized
- Bacterial Biotransformation [16]: Compound NOT metabolized
- Bacterial Biotransformation [17]: Compound metabolized
- Bacterial Biotransformation [18]: Compound metabolized
- Bacterial Biotransformation [19]: Compound NOT metabolized
- Bacterial Biotransformation [20]: Compound NOT metabolized
- Bacterial Biotransformation [21]: Compound NOT metabolized
- Bacterial Biotransformation [22]: Compound NOT metabolized
- Bacterial Biotransformation [23]: Compound NOT metabolized
- Bacterial Biotransformation [24]: Compound metabolized
- Bacterial Biotransformation [25]: Compound NOT metabolized
- Bacterial Biotransformation [26]: Compound NOT metabolized
- Bacterial Biotransformation [27]: Compound NOT metabolized
- Bacterial Biotransformation [28]: Compound NOT metabolized
- Bacterial Biotransformation [29]: Compound metabolized
- Bacterial Biotransformation [30]: Compound NOT metabolized
- Bacterial Biotransformation [31]: Compound NOT metabolized
- Bacterial Biotransformation [32]: Compound NOT metabolized
- Bacterial Biotransformation [33]: Compound metabolized
- Bacterial Biotransformation [34]: Compound NOT metabolized
- Bacterial Biotransformation [35]: Compound NOT metabolized
- Bacterial Biotransformation [36]: Compound metabolized
- Bacterial Biotransformation [37]: Compound NOT metabolized
- Bacterial Biotransformation [38]: Compound metabolized
- Bacterial Biotransformation [39]: Compound metabolized
- Bacterial Biotransformation [40]: Compound metabolized
- Bacterial Biotransformation [41]: Compound NOT metabolized
- Bacterial Biotransformation [42]: Compound NOT metabolized
- Bacterial Biotransformation [43]: Compound NOT metabolized
- Bacterial Biotransformation [44]: Compound metabolized
- Bacterial Biotransformation [45]: Compound NOT metabolized
- Bacterial Biotransformation [46]: Compound NOT metabolized
- Bacterial Biotransformation [47]: Compound metabolized
- Bacterial Biotransformation [48]: Compound NOT metabolized
- Bacterial Biotransformation [49]: Compound NOT metabolized
- Bacterial Biotransformation [50]: Compound metabolized
- Bacterial Biotransformation [51]: Compound NOT metabolized
- Bacterial Biotransformation [52]: Compound NOT metabolized
- Bacterial Biotransformation [53]: Compound metabolized
- Bacterial Biotransformation [54]: Compound NOT metabolized
- Bacterial Biotransformation [55]: Compound NOT metabolized
- Bacterial Biotransformation [56]: Compound NOT metabolized
- Bacterial Biotransformation [57]: Compound NOT metabolized
- Bacterial Biotransformation [58]: Compound metabolized
- Bacterial Biotransformation [59]: Compound NOT metabolized
- Bacterial Biotransformation [60]: Compound metabolized
Structure (SMILES): OC(CCN1CCCCC1)(c1ccccc1)C1CC2C=CC1C2 (stereo not given) [BIPERIDEN]

— ChEMBL document CHEMBL5724914, “Linking interpersonal differences in gut microbiota composition and drug biotransformation activity” (2024)
